The values that follow come from patent US20200352914A1, “METHODS OF TREATING HYPERTENSION WITH ACTIVATORS OF TIE-2” (Aerpio Pharmaceuticals, Inc., priority 2019, published 2020).

One assay has as its target recombinant human VE-PTP (Homo sapiens, UniProt P23467). Description: Human VE-PTP (HPTPβ) phosphatase assay on eNOS Tyr81. The format is biochemical. The settings on record: pre-incubation with 10 μmol/L; cell-free. As to the method: Confluent monolayers of human endothelial cells expressing FLAG-tagged eNOS were cultured overnight in MCDB131 containing 0.1% BSA and then stimulated with Yoda1 (1 μmol/L) for 30 minutes to elicit phosphorylation of eNOS on Tyr81. eNOS-FLAG immunoprecipitates were used as substrates to test the ability of recombinant human VE-PTP to dephosphorylate eNOS Tyr81 in a cell-free in vitro reaction. Briefly after washing the FLAG-eNOS, immunoprecipitates were suspended in phosphatase assay buffer containing Tris/HCl pH 7.5 (50 mmol/L), NaCl (150 mmol/L), EDTA (1 mmol/L), and EDTA-free protease inhibitors mix at room temperature. An aliquot of the eNOS-FLAG immunoprecipitate was immediately processed for immunoblotting (input) and the remainder was divided into 6 identical aliquots and incubated for up to 10 minutes at room temperature in phosphatase assay buffer containing DTT (3 mmol/L) and recombinant human VE-PTP (100 U/50 μl reaction). Experiments were performed in the presence of solvent (1% DMSO) or Compound 2 (10 μmol/L) and reactions were stopped by boiling samples for 10 minutes in SDS sample buffer. eNOS phosphorylation was then analyzed by SDS-PAGE and immunoblotting.

For another assay, the system named is eNOS. Description: eNOS and Akt phosphorylation in human endothelial cells (immunoprecipitation, immunoblotting). The format is cell-based. As to the method:
Confluent monolayers of human endothelial cells expressing FLAG-tagged eNOS cultured overnight in MCDB131 containing 0.1% BSA and then incubated with increasing concentrations of Compound 2 (0.3-30 μmol/L) or solvent (DMSO) for 30 minutes. In separate experiments, human endothelial cells were cultured overnight in MCDB131 containing 0.1% BSA and then incubated treated with Compound 2 (30 μmol/L) or solvent for 30 minutes and then stimulated with Yoda1 (1 μmol/L) or solvent for an additional 30 minutes. To inhibit Src, cells were pre-incubated with PP2 (1 μmol/L) for 30 min before incubation with Compound 2 and stimulation with Yoda1. After two washes with cold PBS, cells were collected with the aid of cell scrapers in a lysis buffer containing Tris/HCl pH 7.5 (50 mmol/L), NaCl (150 mmol/L), Triton X-100 (1%), NaPPi (10 mmol/L), NaF (20 mmol/L), orthovanadate (2 mmol/L), okadaic acid (10 nmol/L), β-glycerophosphate (50 mmol/L), phenylmethylsulfonyl fluoride (230 μmol/L), and EDTA-free protease inhibitors mix. The cell mixture was incubated for 30 minutes at 4° C. with vortexing, followed by centrifugation at 13000 rpm for 10 minutes at 4° C. To assess the eNOS-VE-PTP interaction, the following modifications were applied: 1) cells were incubated with the lysis buffer for one hour on an end-over-end rocker at 4° C. and gently vortexed until no cell clumps were observed; 2) lysates were not centrifuged after lysis. FLAG-tagged eNOS was immunoprecipitated using 30 μL of packed Anti-FLAG M2 Affinity Gel per mg protein lysate overnight. The recovered immunoprecipitates were washed three times with the lysis buffer, eluted by boiling samples for 10 minutes in SDS sample buffer, and then analyzed by SDS-PAGE and immunoblotting.
Protein samples were separated by SDS-PAGE and then transferred to […] nitrocellulose membranes. Membranes were incubated overnight with primary antibodies against phospho-Tyr81 eNOS, phospho-Ser1177 eNOS, phospho-Ser633 eNOS, eNOS, phospho-Ser473 Akt, Akt, ABL1, VE-PTP, GAPDH, β-actin, followed by species-specific secondary antibodies anti-IgG conjugated with HRP. Proteins were visualized by enhanced chemiluminescence.

In assay [1] the test system is endothelium-intact aortic rings. In words: Vascular reactivity of aortic rings from C57/BL6 mice (myograph, TABLE 28). Details: species or system mouse. As to the method: (§1) Aortic rings from eight to ten-week old male C57/BL6 mice were used to investigate the effects of Compound 2 on endothelial function. Twelve to fourteen-week old male Ins2^Akita mice and non-diabetic littermate controls were used to study the effects of Compound 2 on diabetes-associated endothelial dysfunction. Myograph experiments were performed in modified Krebs-Henseleit solution. Aortae were dissected free of adhering tissue, cut into 2-mm segments, and mounted in 5-mL myograph chambers under a basal tension of 1 g. Relaxation to cumulatively increasing concentrations (0.001-100 μmol/L) of Compound 2 or solvent (DMSO) was assessed in endothelium-intact aortic segments pre-contracted with phenylephrine (1 μmol/L) in the absence or presence of N^ω-nitro-L-arginine methyl ester (L-NAME; 300 μmol/L).
To assess the role for VE-PTP in the regulation of vascular reactivity, endothelium-intact rings of murine aortae were incubated with increasing concentrations of Compound 2.
FIG. 24 panels A-D illustrate the effect of Compound 2 on endothelial function. FIG. 24 panel A illustrates concentration dependent effect of Compound 2 on the tone of endothelium-intact aortic rings. Experiments were performed in the absence and presence of an eNOS inhibitor, L-NAME (300 μmol/L). FIG. 24 panels B-D illustrate the effect of solvent (Sol, DMSO) and Compound 2 (1, 3, or 10 μmol/L) on the contractile response to phenylephrine (PE; FIG. 24 panel B), and relaxation induced by either sodium nitroprusside (SNP; FIG. 24 panel C) or acetylcholine (ACh; FIG. 24 panel D). The dotted line in FIG. 24 panel D represents responses in endothelium-denuded aortic rings; n=5 mice/group.

Assay [2] has as its system endothelium-intact aortic rings from WT and Akita mice. In words: Vascular reactivity of aortic rings from diabetic Ins2Akita mice and WT littermates (TABLE 29). The settings on record: 10 μmol/L. Details: species or system mouse. As to the method: as §1
To determine whether VE-PTP inhibition affects endothelial dysfunction that accompanies diabetes, aortic rings were isolated from 12-week old diabetic Ins2^Akita(Akita) mice and their non-diabetic littermates.
FIG. 29 panels A-B illustrate the effects of Compound 2 on diabetes-induced endothelial dysfunction. FIG. 29 panel A illustrates the effects of Compound 2 on acetylcholine-induced relaxation of endothelium-intact aortic rings from WT and Akita mice.

Where [3] appears, read: 30 μmol/L 30 minutes, then Yoda1 1 μmol/L 30 min.
[4] abbreviates: arteries precontracted with phenylephrine, n=5 mice/group.

SMILES strings stand for the structures.

Sequence of recombinant human VE-PTP (P23467 23-1997): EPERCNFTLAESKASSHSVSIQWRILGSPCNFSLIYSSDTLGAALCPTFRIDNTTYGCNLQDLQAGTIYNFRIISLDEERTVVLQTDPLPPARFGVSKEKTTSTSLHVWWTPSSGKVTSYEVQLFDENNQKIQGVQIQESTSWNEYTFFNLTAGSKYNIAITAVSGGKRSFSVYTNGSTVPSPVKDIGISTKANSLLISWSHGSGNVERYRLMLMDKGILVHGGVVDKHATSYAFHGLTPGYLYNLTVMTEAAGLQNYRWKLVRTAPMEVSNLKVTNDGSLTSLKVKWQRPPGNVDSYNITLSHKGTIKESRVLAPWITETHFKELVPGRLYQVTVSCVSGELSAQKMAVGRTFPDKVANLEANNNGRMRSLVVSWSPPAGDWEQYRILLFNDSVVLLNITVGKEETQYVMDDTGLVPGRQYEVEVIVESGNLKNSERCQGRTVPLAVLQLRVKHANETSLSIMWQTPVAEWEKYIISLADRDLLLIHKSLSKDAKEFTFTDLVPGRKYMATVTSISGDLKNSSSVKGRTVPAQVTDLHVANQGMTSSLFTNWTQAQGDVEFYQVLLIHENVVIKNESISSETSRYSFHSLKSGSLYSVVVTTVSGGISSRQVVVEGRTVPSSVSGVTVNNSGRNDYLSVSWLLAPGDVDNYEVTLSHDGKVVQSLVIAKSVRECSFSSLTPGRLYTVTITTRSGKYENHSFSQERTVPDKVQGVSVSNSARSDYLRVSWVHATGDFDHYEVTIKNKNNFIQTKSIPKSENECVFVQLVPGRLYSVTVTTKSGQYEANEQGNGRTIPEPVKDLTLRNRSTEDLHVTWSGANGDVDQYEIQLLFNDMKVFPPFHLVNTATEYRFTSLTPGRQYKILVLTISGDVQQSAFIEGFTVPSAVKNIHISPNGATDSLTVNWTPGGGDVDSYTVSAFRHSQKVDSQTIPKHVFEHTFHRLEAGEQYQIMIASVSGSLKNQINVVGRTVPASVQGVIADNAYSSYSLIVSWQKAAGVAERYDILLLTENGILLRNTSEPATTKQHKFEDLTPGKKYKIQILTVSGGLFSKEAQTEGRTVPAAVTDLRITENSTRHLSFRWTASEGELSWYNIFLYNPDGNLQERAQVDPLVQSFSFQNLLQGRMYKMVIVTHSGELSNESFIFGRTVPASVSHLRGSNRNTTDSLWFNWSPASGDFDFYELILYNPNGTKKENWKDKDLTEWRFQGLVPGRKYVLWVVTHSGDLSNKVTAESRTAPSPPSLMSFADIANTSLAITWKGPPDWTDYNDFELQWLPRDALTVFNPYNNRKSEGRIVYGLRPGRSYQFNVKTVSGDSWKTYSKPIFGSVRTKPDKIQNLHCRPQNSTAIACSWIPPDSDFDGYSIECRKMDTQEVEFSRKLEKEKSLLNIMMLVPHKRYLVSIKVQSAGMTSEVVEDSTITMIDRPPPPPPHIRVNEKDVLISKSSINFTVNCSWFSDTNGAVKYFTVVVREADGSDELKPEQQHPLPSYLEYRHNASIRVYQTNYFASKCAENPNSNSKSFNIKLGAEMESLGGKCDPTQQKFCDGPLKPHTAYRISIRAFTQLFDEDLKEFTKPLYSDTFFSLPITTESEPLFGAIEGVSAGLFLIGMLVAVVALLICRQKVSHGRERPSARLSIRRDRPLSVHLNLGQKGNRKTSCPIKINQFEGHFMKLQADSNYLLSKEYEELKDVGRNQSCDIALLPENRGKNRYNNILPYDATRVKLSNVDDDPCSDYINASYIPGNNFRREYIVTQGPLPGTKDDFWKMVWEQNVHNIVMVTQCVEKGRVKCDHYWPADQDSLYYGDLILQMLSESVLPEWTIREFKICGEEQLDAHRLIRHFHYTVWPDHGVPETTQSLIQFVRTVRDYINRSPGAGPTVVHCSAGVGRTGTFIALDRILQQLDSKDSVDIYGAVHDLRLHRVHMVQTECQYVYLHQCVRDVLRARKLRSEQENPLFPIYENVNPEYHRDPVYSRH

`CCc1nc([C@H](Cc2ccc(NS(=O)(=O)O)cc2)NC(=O)[C@H](Cc2ccccc2)NC(=O)OC)cs1` [Compound 2]: at recombinant human VE-PTP, the “time-dependent dephosphorylation of eNOS Tyr81 by recombinant VE-PTP” value is “abolished”. In the assay on eNOS (setting [3]), the “Yoda1-induced phosphorylation of Akt on Ser473 and eNOS on Ser1177” value is given as “also increased”; the “Yoda1-induced phosphorylation of eNOS on Ser633” value is listed as “not affected”; the “Yoda1-induced phosphorylation of eNOS on Tyr81” value is “markedly enhanced”. The “eNOS phosphorylation on Tyr81 and Ser1177” value with eNOS (0.3-30 μmol/L, 30 minutes) was “led to phosphorylation of eNOS on Tyr81 and Ser1177”. The “phenylephrine-induced contractions and sodium nitroprusside-induced relaxations” value in assay [1] (1, 3, or 10 μmol/L, 30 minutes) is “Neither phenylephrine-induced contractions nor sodium nitroprusside-induced relaxations were affected”. Moreover, in assay [1] (1, 3, or 10 μmol/L, concentration-dependent), the “acetylcholine-induced relaxations of endothelium-intact vessels” value is given as “significantly enhanced”. The “relaxation response in presence of eNOS inhibitor L-NAME” value in assay [1] (L-NAME 300 μmol/L) is on record as “abolished”. Besides, in assay [1] (setting [4]), the “Emax of concentration-dependent relaxation” value is 73.4±2.9% and the “pEC50 of concentration-dependent relaxation” value was determined as 5.14±0.05 log mol/L. Moreover, in assay [2] (Ins2Akita mice), the “acetylcholine-induced and NO-mediated relaxation in aortic rings from diabetic mice” value is on record as “restored”; the “elevated phenylephrine-induced contraction of aortic rings” value was “not influenced”. The acetylcholine-induced endothelium-dependent relaxation result in assay [2] (tissues from non-diabetic mice) is “potentiated responses”.
